This experiment addresses recombinant full length HPK-1 enzyme (Homo sapiens (Human), UniProt Q92918). In words: HPK-1 biochemical enzyme assay (ADP-Glo kinase inhibition). The note with it: recombinant full length HPK-1 6.8 nM, 10 μM ATP, 12.5 μM MBP, 30 mins at 25° C. In a few lines:
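Recombinant full-length human HPK-1 (6.8 nM) incubated 30 min at 25° C. with 10 μM ATP and 12.5 μM swine MBP in 40 mM Tris pH 7.4, 20 mM MgCl2, 50 μM DTT, 0.1 mg/mL BSA. ADP measured by ADP-Glo; IC50 from 10 concentrations, normalized to no-enzyme and vehicle controls.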

A value given as a limit tells only on which side of the number the result lay.

recombinant full length HPK-1 enzyme, sequence (Q92918 whole entry, species assumed): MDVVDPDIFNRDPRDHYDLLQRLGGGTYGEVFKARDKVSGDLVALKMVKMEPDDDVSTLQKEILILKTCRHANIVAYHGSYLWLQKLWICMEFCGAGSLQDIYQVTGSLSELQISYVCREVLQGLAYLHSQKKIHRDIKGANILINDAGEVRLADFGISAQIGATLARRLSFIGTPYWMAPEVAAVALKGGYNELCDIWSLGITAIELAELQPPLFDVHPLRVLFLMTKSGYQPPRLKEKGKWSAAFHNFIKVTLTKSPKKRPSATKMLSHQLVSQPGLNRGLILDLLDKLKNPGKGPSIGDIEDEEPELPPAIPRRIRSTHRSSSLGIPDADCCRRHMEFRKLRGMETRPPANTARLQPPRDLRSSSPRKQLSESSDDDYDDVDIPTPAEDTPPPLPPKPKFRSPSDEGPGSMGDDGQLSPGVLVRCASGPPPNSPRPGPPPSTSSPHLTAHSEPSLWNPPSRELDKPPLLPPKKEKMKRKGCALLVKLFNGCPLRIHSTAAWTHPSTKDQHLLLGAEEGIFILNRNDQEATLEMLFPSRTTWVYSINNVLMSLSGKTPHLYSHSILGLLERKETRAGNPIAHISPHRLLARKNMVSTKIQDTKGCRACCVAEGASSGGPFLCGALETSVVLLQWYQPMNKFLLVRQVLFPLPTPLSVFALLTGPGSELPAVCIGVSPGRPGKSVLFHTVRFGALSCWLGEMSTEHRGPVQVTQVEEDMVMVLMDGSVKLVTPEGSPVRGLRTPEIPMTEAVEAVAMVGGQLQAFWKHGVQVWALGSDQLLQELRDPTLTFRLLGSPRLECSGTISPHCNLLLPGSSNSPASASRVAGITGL

On to `Cc1c(Nc2cc[nH]c(=O)c2C(=O)Nc2ccc(N3CCN(C)[C@H](C)C3)cc2)cnc2c1NCCO2` [Example 220, (R)-N-(4-(3,4-dimethylpiperazin-1-yl)phenyl)-4-((8-methyl-2,3-dihydro-1H-pyrido[2,3-b][1,4]oxazin-7-yl)amino)-2-oxo-1,2-dihydropyridine-3-carboxamide], for which the IC50 was no more than 10 nM. With `Cc1c(Nc2cc[nH]c(=O)c2C(=O)Nc2ccc3c(c2)NC(=O)CO3)cnc2c1NCCO2` [Example 221, 4-((8-methyl-2,3-dihydro-1H-pyrido[2,3-b][1,4]oxazin-7-yl)amino)-2-oxo-N-(3-oxo-3,4-dihydro-2H-benzo[b][1,4]oxazin-6-yl)-1,2-dihydropyridine-3-carboxamide], the IC50 lay in the range of 100 to 1000 nM. For the molecule `Cc1c(Nc2cc[nH]c(=O)c2C(=O)Nc2cccc(N3CCN(C)CC3)c2)cnc2c1NCCO2` [Example 222, 4-((8-methyl-2,3-dihydro-1H-pyrido[2,3-b][1,4]oxazin-7-yl)amino)-N-(3-(4-methylpiperazin-1-yl)phenyl)-2-oxo-1,2-dihydropyridine-3-carboxamide], the IC50 is 100 to 1000 nM. Regarding `Cc1c(Nc2cc[nH]c(=O)c2C(=O)Nc2ccc(S(C)(=O)=O)cc2)cnc2c1NCCO2` [Example 223, 4-((8-methyl-2,3-dihydro-1H-pyrido[2,3-b][1,4]oxazin-7-yl)amino)-N-(4-(methylsulfonyl)phenyl)-2-oxo-1,2-dihydropyridine-3-carboxamide], the IC50 is 10 to 100 nM. Turning to `Cc1nc2cc(NC(=O)c3c(Nc4cnc5c(c4C)NCCO5)cc[nH]c3=O)ccc2[nH]1` [Example 224, N-(2-methyl-1H-benzo[d]imidazol-5-yl)-4-((8-methyl-2,3-dihydro-1H-pyrido[2,3-b][1,4]oxazin-7-yl)amino)-2-oxo-1,2-dihydropyridine-3-carboxamide], the half-inhibitory concentration (IC50) is 10 to 100 nM. Take `Cc1c(Nc2cc[nH]c(=O)c2C(=O)Nc2ccc(N3CCN(CCCS(C)(=O)=O)CC3)cc2)cnc2c1NCCO2` [Example 225, 4-((8-methyl-2,3-dihydro-1H-pyrido[2,3-b][1,4]oxazin-7-yl)amino)-N-(4-(4-(3-(methylsulfonyl)propyl)piperazin-1-yl)phenyl)-2-oxo-1,2-dihydropyridine-3-carboxamide]: the IC50 was no more than 10 nM. Take `Cc1c(Nc2cc[nH]c(=O)c2C(=O)Nc2ccc(N3CCN(CCN4CCOCC4)CC3)cc2)cnc2c1NCCO2` [Example 226, 4-((8-methyl-2,3-dihydro-1H-pyrido[2,3-b][1,4]oxazin-7-yl)amino)-N-(4-(4-(2-morpholinoethyl)piperazin-1-yl)phenyl)-2-oxo-1,2-dihydropyridine-3-carboxamide]: the IC50 is no more than 10 nM. With `Cc1c(Nc2cc[nH]c(=O)c2C(=O)Nc2ccc(N3CCN(C)CC3)c(CN(C)C)c2)cnc2c1NCCO2` [Example 227, N-(3-((dimethylamino)methyl)-4-(4-methylpiperazin-1-yl)phenyl)-4-((8-methyl-2,3-dihydro-1H-pyrido[2,3-b][1,4]oxazin-7-yl)amino)-2-oxo-1,2-dihydropyridine-3-carboxamide] the figure was no more than 10 nM.

Regarding `Cc1c(Nc2cc[nH]c(=O)c2C(=O)Nc2ccc(C[C@H]3COC(=O)N3)cc2)cnc2c1NCCO2` [Example 228, (S)-4-((8-methyl-2,3-dihydro-1H-pyrido[2,3-b][1,4]oxazin-7-yl)amino)-2-oxo-N-(4-((2-oxooxazolidin-4-yl)methyl)phenyl)-1,2-dihydropyridine-3-carboxamide], the IC50 lay in the range of 10 to 100 nM. `Cc1c(Nc2cc[nH]c(=O)c2C(=O)Nc2cnc(-n3nccn3)c(Cl)c2)cnc2c1NCCO2` [Example 229, N-(5-chloro-6-(2H-1,2,3-triazol-2-yl)pyridin-3-yl)-4-((8-methyl-2,3-dihydro-1H-pyrido[2,3-b][1,4]oxazin-7-yl)amino)-2-oxo-1,2-dihydropyridine-3-carboxamide]: the IC50 was 100 to 1000 nM.

By IC50 is commonly meant the concentration that gives 50% inhibition.

For the origin of these results see patent US20250282794A1 (CURADEV PHARMA LTD, priority 2022, published 2025).
